Reference: article PMC11674305, “Inhibition of Neural Crest Cell Migration by Strobilurin Fungicides and Other Mitochondrial Toxicants” (Cells, 2024)

Columns and labels:
neural crest cells (NCC) [1] = assay type: cell-based, human
Method: The research group initially developed the first version of the test in 2012 [40]. The test has been further improved and characterized. To perform the cMINC assay, NCCs were thawed in N2-S Medium and seeded on the day of migration-1 (DoM-1) on a 96-well polystyrene plate (Corning, Glendale, AZ, USA) around stoppers, to create a cell-free area of 2 mm diameter (Platypus Technologies, Madison, WI, USA). The cells were resuspended in N2-S Medium supplemented with […] of the cytokines EGF and FGF, and then counted and seeded around the stoppers at a density of 95,000 cells/cm^2. After 24 h, the stoppers were removed, and the medium was exchanged. […]
On day 2, cells were stained with 533 nM calcein-AM and 1 μg/mL H-33342 (both from Sigma, Steinheim, Germany) and observed using two different channels on the Cellomics ArrayScan VTI imaging microscope (Thermo Fisher, Pittsburgh, PA, USA) to assess viability and migration. […] Cell viability was assessed by taking four pictures outside of the ROI with 10× magnification objective. Viable cells were defined as H-33342 and calcein-AM double-positive cells and calculated by an automatic algorithm of the ArrayScan VTI 700 Series software as described earlier. […] The average response (relative to solvent control) of the lowest two test concentrations was calculated, and all other data points of the same curve were divided by this average value. […]

neural crest cells (NCC) [2] = test: Transwell migration assay (FBS chemoattractant, 6 h); assay type: cell-based, human; conditions: glucose or galactose medium
Method: Cells were seeded at a density of 50,000 cells/well (150,000 cells/cm^2) into the upper chamber (insert) of the 96-well transwell plates (pore size 8 μm, polycarbonate membrane, Corning, Glendale, AZ, USA). The cells were stimulated to migrate through the membrane by medium supplemented with 5% of the chemoattractant fetal bovine serum (FBS) (PAA Laboratories, Pasching, Austria) in the lower chamber (reservoir). For testing of migration inhibition upon compound treatment, compounds were used at a concentration of BMC10 (V) of prior cMINC testing. Three technical replicates per condition were used. As a control for “unstimulated” migration, medium without any chemoattractant was tested. As an endpoint specific control for “inhibited” migration, CytoD with a concentration of 200 nM was used. After 6 h incubation time, the medium was aspirated, and reservoirs were washed with DPBS. Afterwards, reservoirs were filled with EDTA dissociation solution (DPBS supplemented with 0.1% 0.5 M EDTA UltraPure pH 8.0 (Thermo Fisher Scientific, Waltham, MA, USA), and 0.18% NaCl) containing 0.25 μL/mL calcein-AM and incubated for 30 min at 37 °C. The plates were then centrifuged at 300× g for 5 min (1200 rpm, Heraeus Multifuge 1 S-R, ThermoScientific) to remove migrated cells from the membrane. The tray with 96 wells of permeable inserts was removed, and the receiver plate was measured in the spectrophotometer (TECAN, Männedorf, Switzerland) with an emission wavelength of 520 nm. After subtraction of the blank values, the number of migrated cells was normalized to that of cells stimulated with FBS.
To perform the experiments under mitochondria-dependent conditions, the cells were handled exactly in the same way, but the medium was adapted. The N2-S medium was adjusted, so that no glucose was present but galactose. The medium consisted of SILAC^TM Advanced DMEM/-F12 FLEX (Gibco/Fisher Scientific, Hampton, NH, USA), 15 μg/mL insulin, 400 μM GlutaMAX, 0.7 mM L-Arginine, 0.5 mM L-Lysine, 21.5 µM Phenol Red, 20 nM progesterone, 100 μM putrescine and 30 nM selenium, 92.5 μg/mL apotransferrin, 4.7 mg/mL galactose (18 mM). The cytokines 20 ng/mL EGF and 20 ng/mL FGF2 were always freshly added to each run.

[3] = parameters: species or system human
Method: Figure 8 Consideration of biokinetics for refined hazard (potency) estimates. (A) Concentration–response curve of the oxygen consumption rate (OCR) in NCCs cultured in galactose medium after a 24 h treatment with picoxystrobin. The highest tested concentration was 2.8 µM (highest non-cytotoxic exposure). Data are shown for two independent experiments (as in Figure 7B). (B) The cMINC assay was performed as in Figure 1, but the NCCs were cultured in galactose medium. The insert box gives picoxystrobin potency data for migration (M) and cytotoxicity (V), and their ratio. Data are expressed as means ± SEM from seven independent experiments. (C) Schematic illustration of the distribution of picoxystrobin in a cell culture well according to the in silico biokinetics prediction model. Data for each compartment are given either as percentage (left) or as concentrations (right) for a nominal concentration of 1 µM. (D) Tabular overview of the distribution of picoxystrobin in the different compartments at a nominal concentration of 1 µM. Mediumt: total medium; Mediumb: bound in medium; Mediumu: unbound in medium; Cellst: total amount in cells; CellsM: mitochondrial compartment; CellsL: lysosomal compartment; CellsR: “rest” of the cells. […] (E) Synoptic overview of predicted and measured concentrations of picoxystrobin. […]

[4] = cited from earlier work

In the case of `CO/C=C(/C(=O)OC)c1ccccc1COc1cccc(C(F)(F)F)n1` [Picoxystrobin, picoxystrobin], the “BMC10 (V)” value (neural crest cells (NCC) [1]) is reported as 2.8 µM, the “concentration range at which migration was inhibited” value (neural crest cells (NCC) [1]; galactose medium) is reported as ~100 nM and the “concentration at which transwell migration was inhibited” value (neural crest cells (NCC) [2]) is reported as ≥ 5 µM. For the same compound, the “MoE for fetus (nominal data)” value [3] was 2-100 fold, the “Henry's law constant” value ([4]; at 25 °C, VIVD model input) was 6 × 10^−4 Pa*m^3*mol⁻^1 and the charge characterization ([4]; model input) was “neutral”.
